Measured values taken from patent US10961539B2, “Promoter system inducing expression by 3-hydroxypropionic acid and method for biological production of 3-hydroxypropionic acid using same” (NOROO IC Co., Ltd., priority 2015, dated 2021).
Values joined by “and” are separate entries in the source; they are usually repeats but may differ in a detail not shown here. Equal values may be shown once. Read-outs that look alike come from different tables or passages of the source.

Experiments:
3hibdhIV = assay: RT-PCR relative mRNA level of 3-HP catabolic gene
3hpdh = assay: RT-PCR relative mRNA levels of 3-HP degrading genes in various microorganisms (Table 7); type: cell-based, microorganisms shown in Table 1
3hibdh = type: cell-based, microorganisms shown in Table 1
[1] = Achromobacter denitrificans, + 3-HP
[2] = Acidovorax avenae subsp., + 3-HP
[3] = Acinetobacter baumannii, + 3-HP
[4] = Alcanivorax hongdengensis, + 3-HP
[5] = Alicychphilus denitrificans, + 3-HP
[6] = Azospirillum brasilensse, + 3-HP
[7] = Bradyrhizobium japonicum, + 3-HP
[8] = Catenulispora acidiphilia, + 3-HP
[9] = Chromobacterium violaceum, + 3-HP
[10] = Corynebacterium vitaeruminis, + 3-HP
[11] = Glaciecola nitratireducens, + 3-HP
[12] = Janthinobacterium lividum, + 3-HP
[13] = Parvibaculum lavamentivorans, + 3-HP
[14] = Phenylobacterium kunshanensis, + 3-HP
[15] = Polynucleobacter necessarius asymbioticus, + 3-HP
[16] = Pseudomonas denitrificans ATCC13867, + 3-HP
[17] = Pseudomonas fluorescens, + 3-HP
[18] = Pseudomonas knackmussii, + 3-HP
[19] = Psychrobacter phenylpyruvicus, + 3-HP
[20] = Rhodomicrobium vannielli, + 3-HP
[21] = Sphingobium chlorophenolicum, + 3-HP
[22] = Stenotrophomonas maltophilia, + 3-HP
[23] = Verminephrobacter eiseniae, + 3-HP
[24] = Xanthobacter autotrophicus, + 3-HP
[25] = in the microorganisms (Table 7), 25 mM 3-HP in nutrient medium

SMILES: O=C(O)CCO [3-HP, 3-hydroxypropionic acid]
- fold increase of 3hibdhIV mRNA expression (3hibdhIV; cells exposed to 25 mmol/L 3-HP vs no 3-HP, M9 medium, rpoD reference gene): 146 fold
- 3hibdhIV expression on addition of 3-HP (3hibdhIV; strain with C4 LysR gene removed): did not increase the expression
- Relative mRNA level 3hpdh + 3-HP (3hpdh): 0.19
- Relative mRNA level 3hpdh + 3-HP (3hpdh; [1]): 0.24
- Relative mRNA level 3hpdh + 3-HP (3hpdh; [2]): 0.28
- Relative mRNA level 3hpdh + 3-HP (3hpdh; Acidovorax sp., + 3-HP): 0.31
- Relative mRNA level 3hpdh + 3-HP (3hpdh; [3]): 0.19
- Relative mRNA level 3hpdh + 3-HP (3hpdh; Agrobacterium sp., + 3-HP): 0.27
- Relative mRNA level 3hpdh + 3-HP (3hpdh; Alcaligenes faecalis, + 3-HP): 0.26
- Relative mRNA level 3hpdh + 3-HP (3hpdh; [4]): 0.27
- Relative mRNA level 3hpdh + 3-HP (3hpdh; [5]): 0.30
- Relative mRNA level 3hpdh + 3-HP (3hpdh; Alteromonas marina, + 3-HP): 0.34
- Relative mRNA level 3hpdh + 3-HP (3hpdh; [6]): 0.41
- Relative mRNA level 3hpdh + 3-HP (3hpdh; Bordetella avium, + 3-HP): 0.45
- Relative mRNA level 3hpdh + 3-HP (3hpdh; [7]): 0.52
- Relative mRNA level 3hpdh + 3-HP (3hpdh; Burkholderia ambifaria, + 3-HP): 0.31
- Relative mRNA level 3hpdh + 3-HP (3hpdh; [8]): 0.41
- Relative mRNA level 3hpdh + 3-HP (3hpdh; Caulobacter sp., + 3-HP): 0.45
- Relative mRNA level 3hpdh + 3-HP (3hpdh; [9]): 0.25
- Relative mRNA level 3hpdh + 3-HP (3hpdh; Comamonas testosteroni, + 3-HP): 0.24
- Relative mRNA level 3hpdh + 3-HP (3hpdh; [10]): 0.28
- Relative mRNA level 3hpdh + 3-HP (3hpdh; Cupriavidus necator, + 3-HP): 0.21
- Relative mRNA level 3hpdh + 3-HP (3hpdh; [11]): 0.30
- Relative mRNA level 3hpdh + 3-HP (3hpdh; Gordonia bronchialis, + 3-HP): 0.29
- Relative mRNA level 3hpdh + 3-HP (3hpdh; Hahella chijuensis, + 3-HP): 0.28
- Relative mRNA level 3hpdh + 3-HP (3hpdh; Halomonas elongata, + 3-HP): 0.32
- Relative mRNA level 3hpdh + 3-HP (3hpdh; Hirschia litorea, + 3-HP): 0.34
- Relative mRNA level 3hpdh + 3-HP (3hpdh; Idiomarina sp., + 3-HP): 0.42
- Relative mRNA level 3hpdh + 3-HP (3hpdh; [12]): 0.33
- Relative mRNA level 3hpdh + 3-HP (3hpdh; Kitasatospora setae, + 3-HP): 0.36
- Relative mRNA level 3hpdh + 3-HP (3hpdh; Kutzneria albida, + 3-HP): 0.41
- Relative mRNA level 3hpdh + 3-HP (3hpdh; Methylobacterium sp., + 3-HP): 0.45
- Relative mRNA level 3hpdh + 3-HP (3hpdh; Novosphingobium sp., + 3-HP): 0.39
- Relative mRNA level 3hpdh + 3-HP (3hpdh; Oceanimonas smirnovii, + 3-HP): 0.24
- Relative mRNA level 3hpdh + 3-HP (3hpdh; Paracoccus sp., + 3-HP): 0.25
- Relative mRNA level 3hpdh + 3-HP (3hpdh; [13]): 0.28
- Relative mRNA level 3hpdh + 3-HP (3hpdh; [14]): 0.33
- Relative mRNA level 3hpdh + 3-HP (3hpdh; [15]): 0.45
- Relative mRNA level 3hpdh + 3-HP (3hpdh; Pseudogulbenkiania sp., + 3-HP): 0.26
- Relative mRNA level 3hpdh + 3-HP (3hpdh; [16]): 0.23
- Relative mRNA level 3hpdh + 3-HP (3hpdh; [17]): 0.27
- Relative mRNA level 3hpdh + 3-HP (3hpdh; [18]): 0.25
- Relative mRNA level 3hpdh + 3-HP (3hpdh; Pseudomonas protegens, + 3-HP): 0.19
- Relative mRNA level 3hpdh + 3-HP (3hpdh; [19]): 0.37
- Relative mRNA level 3hpdh + 3-HP (3hpdh; [20]): 0.41
- Relative mRNA level 3hpdh + 3-HP (3hpdh; Segniliparus rotundus, + 3-HP): 0.27
- Relative mRNA level 3hpdh + 3-HP (3hpdh; Shewanella oneidensis, + 3-HP): 0.28
- Relative mRNA level 3hpdh + 3-HP (3hpdh; Simiduia agarovorans, + 3-HP): 0.29
- Relative mRNA level 3hpdh + 3-HP (3hpdh; [21]): 0.33
- Relative mRNA level 3hpdh + 3-HP (3hpdh; Sphingomonas wittichii, + 3-HP): 0.45
- Relative mRNA level 3hpdh + 3-HP (3hpdh; [22]): 0.31
- Relative mRNA level 3hpdh + 3-HP (3hpdh; Streptomyces nodosus, + 3-HP): 0.39
- Relative mRNA level 3hpdh + 3-HP (3hpdh; [23]): 0.43
- Relative mRNA level 3hpdh + 3-HP (3hpdh; Vibrio furnissii, + 3-HP): 0.39
- Relative mRNA level 3hpdh + 3-HP (3hpdh; [24]): 0.27
- Relative mRNA level 3hpdh + 3-HP (3hpdh; Xanthomonas campestri, + 3-HP): 0.25
- increase of expression of 3hpdh by 3-HP (3hpdh; [25]): 6 fold
- Relative mRNA level 3hibdh + 3-HP (3hibdh): 7.21 and 6.43
- Relative mRNA level 3hibdh + 3-HP (3hibdh; [1]): 6.40
- Relative mRNA level 3hibdh + 3-HP (3hibdh; [2]): 5.97
- Relative mRNA level 3hibdh + 3-HP (3hibdh; Acidovorax sp., + 3-HP): 6.76
- Relative mRNA level 3hibdh + 3-HP (3hibdh; [3]): 6.02
- Relative mRNA level 3hibdh + 3-HP (3hibdh; Aeromonas hydrophilia, + 3-HP): 6.17
- Relative mRNA level 3hibdh + 3-HP (3hibdh; Agrobacterium sp., + 3-HP): 6.27
- Relative mRNA level 3hibdh + 3-HP (3hibdh; Alcaligenes faecalis, + 3-HP): 5.87
- Relative mRNA level 3hibdh + 3-HP (3hibdh; [4]): 6.74
- Relative mRNA level 3hibdh + 3-HP (3hibdh; [5]): 7.01
- Relative mRNA level 3hibdh + 3-HP (3hibdh; Alteromonas marina, + 3-HP): 6.09
- Relative mRNA level 3hibdh + 3-HP (3hibdh; Amycolatopsis sp., + 3-HP): 5.96
- Relative mRNA level 3hibdh + 3-HP (3hibdh; Anaeromyxobacter dehalogenans, + 3-HP): 6.43
- Relative mRNA level 3hibdh + 3-HP (3hibdh; [6]): 6.54
- Relative mRNA level 3hibdh + 3-HP (3hibdh; Azotobacter vinelandii, + 3-HP): 6.73
- Relative mRNA level 3hibdh + 3-HP (3hibdh; Beijerinckia indica, + 3-HP): 6.59
- Relative mRNA level 3hibdh + 3-HP (3hibdh; Bordetella avium, + 3-HP): 6.04
- Relative mRNA level 3hibdh + 3-HP (3hibdh; [7]): 7.21
- Relative mRNA level 3hibdh + 3-HP (3hibdh; Burkholderia ambifaria, + 3-HP): 5.94
- Relative mRNA level 3hibdh + 3-HP (3hibdh; Castellaniella defragrans, + 3-HP): 7.43
- Relative mRNA level 3hibdh + 3-HP (3hibdh; [8]): 5.84
- Relative mRNA level 3hibdh + 3-HP (3hibdh; Caulobacter sp., + 3-HP): 5.96
- Relative mRNA level 3hibdh + 3-HP (3hibdh; [9]): 7.02
- Relative mRNA level 3hibdh + 3-HP (3hibdh; Collimonas arenae, + 3-HP): 7.20
- Relative mRNA level 3hibdh + 3-HP (3hibdh; Comamonas testosteroni, + 3-HP): 5.88
- Relative mRNA level 3hibdh + 3-HP (3hibdh; [10]): 6.99
- Relative mRNA level 3hibdh + 3-HP (3hibdh; Cupriavidus necator, + 3-HP): 6.84
- Relative mRNA level 3hibdh + 3-HP (3hibdh; Curvibacter gracilus, + 3-HP): 5.76
- Relative mRNA level 3hibdh + 3-HP (3hibdh; Delftia acidovorans, + 3-HP): 6.34
- Relative mRNA level 3hibdh + 3-HP (3hibdh; Ferrimonas balearica, + 3-HP): 7.04
- Relative mRNA level 3hibdh + 3-HP (3hibdh; [11]): 7.11
- Relative mRNA level 3hibdh + 3-HP (3hibdh; Gordonia bronchialis, + 3-HP): 6.99
- Relative mRNA level 3hibdh + 3-HP (3hibdh; Hahella chijuensis, + 3-HP): 6.81
- Relative mRNA level 3hibdh + 3-HP (3hibdh; Halomonas elongata, + 3-HP): 5.41
- Relative mRNA level 3hibdh + 3-HP (3hibdh; Hirschia litorea, + 3-HP): 6.19
- Relative mRNA level 3hibdh + 3-HP (3hibdh; Idiomarina sp., + 3-HP): 7.21
- Relative mRNA level 3hibdh + 3-HP (3hibdh; [12]): 6.98
- Relative mRNA level 3hibdh + 3-HP (3hibdh; Kitasatospora setae, + 3-HP): 6.46
- Relative mRNA level 3hibdh + 3-HP (3hibdh; Kutzneria albida, + 3-HP): 5.96
- Relative mRNA level 3hibdh + 3-HP (3hibdh; Methylobacterium sp., + 3-HP): 6.02
- Relative mRNA level 3hibdh + 3-HP (3hibdh; Methylocystis sp., + 3-HP): 6.51
- Relative mRNA level 3hibdh + 3-HP (3hibdh; Novosphingobium sp., + 3-HP): 5.98
- Relative mRNA level 3hibdh + 3-HP (3hibdh; Oceanimonas smirnovii, + 3-HP): 6.44
- Relative mRNA level 3hibdh + 3-HP (3hibdh; Paracoccus sp., + 3-HP): 6.32
- Relative mRNA level 3hibdh + 3-HP (3hibdh; [13]): 7.31
- Relative mRNA level 3hibdh + 3-HP (3hibdh; [14]): 7.43
- Relative mRNA level 3hibdh + 3-HP (3hibdh; Photobacterium gaetbuleda, + 3-HP): 7.02
- Relative mRNA level 3hibdh + 3-HP (3hibdh; [15]): 6.99
- Relative mRNA level 3hibdh + 3-HP (3hibdh; Pseudoalteromonas carrgeenovora, + 3-HP): 5.76
- Relative mRNA level 3hibdh + 3-HP (3hibdh; Pseudogulbenkiania sp., + 3-HP): 5.98
- Relative mRNA level 3hibdh + 3-HP (3hibdh; [16]): 6.20
- Relative mRNA level 3hibdh + 3-HP (3hibdh; [17]): 5.81
- Relative mRNA level 3hibdh + 3-HP (3hibdh; [18]): 6.81
- Relative mRNA level 3hibdh + 3-HP (3hibdh; Pseudomonas protegens, + 3-HP): 5.62
- Relative mRNA level 3hibdh + 3-HP (3hibdh; Pseudoxanthomonas spadix, + 3-HP): 5.99
- Relative mRNA level 3hibdh + 3-HP (3hibdh; [19]): 7.04
- Relative mRNA level 3hibdh + 3-HP (3hibdh; [20]): 7.01
- Relative mRNA level 3hibdh + 3-HP (3hibdh; Segniliparus rotundus, + 3-HP): 5.81
- Relative mRNA level 3hibdh + 3-HP (3hibdh; Shewanella oneidensis, + 3-HP): 5.81
- Relative mRNA level 3hibdh + 3-HP (3hibdh; Simiduia agarovorans, + 3-HP): 5.76
- Relative mRNA level 3hibdh + 3-HP (3hibdh; Sinorhizobium meliloti, + 3-HP): 5.79
- Relative mRNA level 3hibdh + 3-HP (3hibdh; [21]): 5.99
- Relative mRNA level 3hibdh + 3-HP (3hibdh; Sphingomonas wittichii, + 3-HP): 7.02
- Relative mRNA level 3hibdh + 3-HP (3hibdh; Sphingopyxis alaskensis, + 3-HP): 7.00
- Relative mRNA level 3hibdh + 3-HP (3hibdh; [22]): 6.02
- Relative mRNA level 3hibdh + 3-HP (3hibdh; Streptomyces nodosus, + 3-HP): 6.72
- Relative mRNA level 3hibdh + 3-HP (3hibdh; Tatlockia micdadei, + 3-HP): 6.61
- Relative mRNA level 3hibdh + 3-HP (3hibdh; Thalassospira xiamenensis, + 3-HP): 7.02
- Relative mRNA level 3hibdh + 3-HP (3hibdh; Variovorax paradoxus, + 3-HP): 6.59
- Relative mRNA level 3hibdh + 3-HP (3hibdh; [23]): 6.43
- Relative mRNA level 3hibdh + 3-HP (3hibdh; Vibrio furnissii, + 3-HP): 6.03
- Relative mRNA level 3hibdh + 3-HP (3hibdh; [24]): 6.23
- Relative mRNA level 3hibdh + 3-HP (3hibdh; Xanthomonas campestri, + 3-HP): 5.81
- increase of expression of 3hibdh by 3-HP (3hibdh; [25]): 14 fold
